Where a SMILES comes first, the peptide text is derived from it. Bridges are numbered along the chain shown (N, C = ends). [ ]: non-standard residue; d: D form. Aib = CC(C)(N)C(=O)O
Experiments:
Type in all cases: cell-based
[1] = molecular target: T1, GIP receptor (Homo sapiens, UniProt P48546); assay: cAMP synthesis functional assay (firefly luciferase reporter in HEK293 cells), GIP receptor
T1 construct: expressed in transfected cells; host or cells: HEK293
T1 sequence (P48546 22-466): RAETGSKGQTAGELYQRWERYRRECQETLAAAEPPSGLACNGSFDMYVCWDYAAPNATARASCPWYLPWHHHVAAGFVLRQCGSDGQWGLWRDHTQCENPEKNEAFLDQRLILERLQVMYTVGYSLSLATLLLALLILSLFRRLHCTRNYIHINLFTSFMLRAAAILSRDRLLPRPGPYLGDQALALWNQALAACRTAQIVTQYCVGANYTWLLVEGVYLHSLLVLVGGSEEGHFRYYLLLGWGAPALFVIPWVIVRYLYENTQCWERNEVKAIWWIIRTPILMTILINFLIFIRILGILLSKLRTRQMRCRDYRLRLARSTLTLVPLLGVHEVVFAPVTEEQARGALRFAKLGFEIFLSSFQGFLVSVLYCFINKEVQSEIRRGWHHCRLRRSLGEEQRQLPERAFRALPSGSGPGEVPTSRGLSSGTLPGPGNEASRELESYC

[2] = molecular target: T2, GLP-1 receptor (Homo sapiens, UniProt P43220); assay: cAMP synthesis functional assay (firefly luciferase reporter in HEK293 cells), GLP-1 receptor
T2 construct: expressed in transfected cells; host or cells: HEK293

[3] = molecular target: T3, glucagon receptor (Homo sapiens, UniProt P47871); assay: cAMP synthesis functional assay (firefly luciferase reporter in HEK293 cells), glucagon receptor
T3 construct: expressed in transfected cells; host or cells: HEK293

[4] = Table 1, relative to the native hormone of the indicated receptor
[5] = relative to the standard (Std.) EC50 of the same run

T2 sequence (P43220 24-463, species assumed): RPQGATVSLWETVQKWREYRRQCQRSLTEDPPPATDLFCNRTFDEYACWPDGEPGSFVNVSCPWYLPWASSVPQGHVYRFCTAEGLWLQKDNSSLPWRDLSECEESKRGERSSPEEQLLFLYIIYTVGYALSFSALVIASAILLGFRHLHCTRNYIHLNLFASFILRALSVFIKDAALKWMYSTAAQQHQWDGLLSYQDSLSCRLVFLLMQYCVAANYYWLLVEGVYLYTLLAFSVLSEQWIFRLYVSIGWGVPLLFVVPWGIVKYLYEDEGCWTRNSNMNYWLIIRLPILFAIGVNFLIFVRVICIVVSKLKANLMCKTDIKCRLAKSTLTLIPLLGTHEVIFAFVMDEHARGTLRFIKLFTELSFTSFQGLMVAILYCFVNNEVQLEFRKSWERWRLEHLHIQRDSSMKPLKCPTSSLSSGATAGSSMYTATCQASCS
T3 sequence (P47871 26-477): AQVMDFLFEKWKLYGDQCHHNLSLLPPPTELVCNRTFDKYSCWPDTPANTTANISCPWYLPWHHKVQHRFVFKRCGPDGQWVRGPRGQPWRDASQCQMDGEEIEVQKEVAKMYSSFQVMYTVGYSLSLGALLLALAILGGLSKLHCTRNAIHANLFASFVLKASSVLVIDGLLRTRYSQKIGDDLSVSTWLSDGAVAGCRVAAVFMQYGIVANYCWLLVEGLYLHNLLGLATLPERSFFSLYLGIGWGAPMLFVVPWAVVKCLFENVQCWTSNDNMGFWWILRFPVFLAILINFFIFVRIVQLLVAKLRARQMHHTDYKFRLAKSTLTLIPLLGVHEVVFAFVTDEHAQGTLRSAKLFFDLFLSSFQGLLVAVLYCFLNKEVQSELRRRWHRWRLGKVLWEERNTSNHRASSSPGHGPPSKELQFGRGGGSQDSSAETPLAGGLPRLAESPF

GIP Receptor relative activity [1, 4] [%]	GLP-1 Receptor relative activity [2, 4] [%]	Glucagon Receptor relative activity [3, 4] [%]	Compound	also measured
0.95	100.00	8.64	CC[C@H](C)[C@H](NC(=O)[C@H](CO)NC(=O)[C@H](Cc1ccc(O)cc1)NC(=O)[C@H](CC(=O)O)NC(=O)[C@H](CO)NC(=O)[C@@H](NC(=O)[C@H](Cc1ccccc1)NC(=O)[C@@H](NC(=O)CNC(=O)[C@H](CCC(N)=O)NC(=O)[C@H](CO)NC(=O)[C@@H](N)Cc1c[nH]cn1)[C@@H](C)O)[C@@H](C)O)C(=O)N[C@@H](Cc1ccc(O)cc1)C(=O)N[C@@H](CCSC)C(=O)N[C@@H](CC(=O)O)C(=O)N[C@H]1CCC(=O)NCCCC[C@@H](C(=O)N[C@@H](CC(=O)O)C(=O)N[C@@H](Cc2ccccc2)C(=O)N[C@H](C(=O)N[C@@H](CC(N)=O)C(=O)N[C@@H](Cc2c[nH]c3ccccc23)C(=O)N[C@@H](CC(C)C)C(=O)N[C@@H](CC(C)C)C(=O)N[C@@H](C)C(=O)N[C@@H](CCC(N)=O)C(N)=O)C(C)C)NC(=O)[C@H](CCC(N)=O)NC(=O)[C@H](Cc2c[nH]cn2)NC(=O)[C@H]([C@@H](C)CC)NC1=O [mt-124] (H-HSQGTFTSDYSIYMDEIHQKDFVNWLLAQ-NH2; lactam 16-20; N-terminus assumed)	EC50 ([2]; GLP-1 Receptor EC50, nM, Table 1): 0.04 nM
84.48	0.04	0.29	CC[C@H](C)[C@H](NC(=O)[C@H](CO)NC(=O)[C@H](Cc1ccc(O)cc1)NC(=O)[C@H](CC(=O)O)NC(=O)[C@H](CO)NC(=O)[C@@H](NC(=O)[C@H](Cc1ccccc1)NC(=O)[C@@H](NC(=O)CNC(=O)[C@H](CCC(=O)O)NC(=O)[C@H](C)NC(=O)[C@@H](N)Cc1ccc(O)cc1)[C@@H](C)O)[C@@H](C)CC)C(=O)N[C@@H](C)C(=O)N[C@@H](CCSC)C(=O)N[C@@H](CC(=O)O)C(=O)N[C@H]1CCC(=O)NCCCC[C@@H](C(=O)N[C@@H](CC(=O)O)C(=O)N[C@@H](Cc2ccccc2)C(=O)N[C@H](C(=O)N[C@@H](CC(N)=O)C(=O)N[C@@H](Cc2c[nH]c3ccccc23)C(=O)N[C@@H](CC(C)C)C(=O)N[C@@H](CC(C)C)C(=O)N[C@@H](C)C(=O)N[C@@H](CCC(N)=O)C(N)=O)C(C)C)NC(=O)[C@H](CCC(N)=O)NC(=O)[C@H](Cc2c[nH]cn2)NC(=O)[C@H]([C@@H](C)CC)NC1=O [mt-96] (H-YAEGTFISDYSIAMDEIHQKDFVNWLLAQ-NH2; lactam 16-20; N-terminus assumed)	

Further lines, the compound ahead of its results:

Compound	GIP Receptor relative activity [1, 4] [%]	GLP-1 Receptor relative activity [2, 4] [%]	Glucagon Receptor relative activity [3, 4] [%]	also measured
CC[C@H](C)[C@H](NC(=O)[C@H](Cc1ccccc1)NC(=O)[C@H](CCC(=O)O)NC(=O)[C@@H]1CCCCNC(=O)CC[C@H](NC(=O)[C@H](CC(=O)O)NC(=O)[C@H](CC(C)C)NC(=O)[C@H](Cc2ccc(O)cc2)NC(=O)[C@H](CCCCN)NC(=O)[C@H](CO)NC(=O)[C@H](Cc2ccc(O)cc2)NC(=O)[C@H](CC(=O)O)NC(=O)[C@H](CO)NC(=O)[C@@H](NC(=O)[C@H](Cc2ccccc2)NC(=O)[C@@H](NC(=O)CNC(=O)[C@H](CCC(N)=O)NC(=O)[C@H](CO)NC(=O)[C@@H](N)Cc2c[nH]cn2)[C@@H](C)O)[C@@H](C)O)C(=O)N[C@@H]([C@@H](C)CC)C(=O)N[C@@H](Cc2c[nH]cn2)C(=O)N[C@@H](CCC(N)=O)C(=O)N1)C(=O)N[C@@H](C)C(=O)N[C@@H](Cc1c[nH]c2ccccc12)C(=O)N[C@@H](CC(C)C)C(=O)N[C@@H](CCSC)C(=O)N[C@@H](CC(N)=O)C(=O)N[C@H](C(N)=O)[C@@H](C)O [mt-61]	0.83	22.22	172.73	EC50 ([3]; Glucagon Receptor EC50, nM, Table 1): 0.11 nM
CC(C)C[C@H](NC(=O)[C@H](CC(C)C)NC(=O)[C@H](Cc1c[nH]c2ccccc12)NC(=O)[C@H](CC(N)=O)NC(=O)[C@@H](NC(=O)[C@H](Cc1ccccc1)NC(=O)[C@H](CCC(=O)O)NC(=O)[C@@H]1CCCCNC(=O)CC[C@H](NC(=O)[C@H](CC(=O)O)NC(=O)[C@H](CC(C)C)NC(=O)[C@H](Cc2ccc(O)cc2)NC(=O)[C@H](CCCCN)NC(=O)[C@H](CO)NC(=O)[C@H](Cc2ccc(O)cc2)NC(=O)[C@H](CC(=O)O)NC(=O)[C@H](CO)NC(=O)[C@@H](NC(=O)[C@H](Cc2ccccc2)NC(=O)[C@@H](NC(=O)CNC(=O)[C@H](CCC(N)=O)NC(=O)[C@H](CO)NC(=O)[C@@H](N)Cc2ccc(O)cc2)[C@@H](C)O)[C@@H](C)O)C(=O)N[C@@H](CCCNC(=N)N)C(=O)N[C@@H](CCCNC(=N)N)C(=O)N[C@@H](C)C(=O)N1)C(C)C)C(=O)N[C@@H](C)C(=O)NCC(=O)NCC(=O)N1CCC[C@H]1C(=O)N[C@@H](CO)C(=O)N[C@@H](CO)C(=O)NCC(=O)N[C@@H](C)C(=O)N1CCC[C@H]1C(=O)N1CCC[C@H]1C(=O)N1CCC[C@H]1C(=O)N[C@@H](CO)C(N)=O [mt-143] (H-YSQGTFTSDYSKYLDERRAKEFVNWLLAGGPSSGAPPPS-NH2; lactam 16-20; N-terminus assumed)	1.82	4.53	496.51	
CC[C@H](C)[C@H](NC(=O)[C@H](CO)NC(=O)[C@H](Cc1ccc(O)cc1)NC(=O)[C@H](CC(=O)O)NC(=O)[C@H](CO)NC(=O)[C@@H](NC(=O)[C@H](Cc1ccccc1)NC(=O)[C@@H](NC(=O)CNC(=O)[C@H](CCC(N)=O)NC(=O)C(C)(C)NC(=O)[C@@H](N)Cc1ccc(O)cc1)[C@@H](C)O)[C@@H](C)O)C(=O)N[C@@H](Cc1ccc(O)cc1)C(=O)N[C@@H](CC(C)C)C(=O)N[C@@H](CC(=O)O)C(=O)NC(C)(C)C(=O)N[C@@H](CCC(N)=O)C(=O)N[C@@H](C)C(=O)N[C@@H](C)C(=O)N[C@@H](CCCCN)C(=O)N[C@@H](CCC(=O)O)C(=O)N[C@@H](Cc1ccccc1)C(=O)N[C@H](C(=O)N[C@@H](CC(N)=O)C(=O)N[C@@H](Cc1c[nH]c2ccccc12)C(=O)N[C@@H](CC(C)C)C(=O)N[C@@H](CC(C)C)C(=O)N[C@@H](C)C(=O)NCC(=O)NCC(=O)N1CCC[C@H]1C(=O)N[C@@H](CO)C(=O)N[C@@H](CO)C(=O)NCC(=O)N[C@@H](C)C(=O)N1CCC[C@H]1C(=O)N1CCC[C@H]1C(=O)N1CCC[C@H]1C(=O)N[C@@H](CO)C(=O)N[C@@H](CS)C(N)=O)C(C)C [mt-241] (H-Y[Aib]QGTFTSDYSIYLD[Aib]QAAKEFVNWLLAGGPSSGAPPPSC-NH2; N-terminus assumed)				GIP Receptor relative activity ([1]; Table 2): 4.37%; EC50 ([2]; GLP-1 Receptor EC50, nM, Table 2): 0.023 nM; GLP-1 Receptor relative activity ([2]; Table 2): 130.43%; Glucagon Receptor relative activity ([3]; Table 2): 3.73%
CC[C@H](C)[C@H](NC(=O)[C@H](CO)NC(=O)[C@H](Cc1ccc(O)cc1)NC(=O)[C@H](CC(=O)O)NC(=O)[C@H](CO)NC(=O)[C@@H](NC(=O)[C@H](Cc1ccccc1)NC(=O)[C@@H](NC(=O)CNC(=O)[C@H](CCC(=O)O)NC(=O)C(C)(C)NC(=O)[C@@H](N)Cc1ccc(O)cc1)[C@@H](C)O)[C@@H](C)O)C(=O)N[C@@H](Cc1ccc(O)cc1)C(=O)N[C@@H](CC(C)C)C(=O)N[C@@H](CC(=O)O)C(=O)N[C@@H](CCCCN)C(=O)N[C@@H](CCC(N)=O)C(=O)N[C@@H](C)C(=O)N[C@@H](C)C(=O)NC(C)(C)C(=O)N[C@@H](CCC(=O)O)C(=O)N[C@@H](Cc1ccccc1)C(=O)N[C@H](C(=O)N[C@@H](CS)C(=O)N[C@@H](Cc1c[nH]c2ccccc12)C(=O)N[C@@H](CC(C)C)C(=O)N[C@@H](CC(C)C)C(=O)N[C@@H](C)C(=O)NCC(=O)NCC(=O)N1CCC[C@H]1C(=O)N[C@@H](CO)C(=O)N[C@@H](CO)C(=O)NCC(=O)N[C@@H](C)C(=O)N1CCC[C@H]1C(=O)N1CCC[C@H]1C(=O)N1CCC[C@H]1C(=O)N[C@@H](CO)C(=O)N[C@H](CCCCN)C(N)=O)C(C)C [mt-334]				EC50 ([1]; GIP Receptor EC50, cAMP luciferase reporter assay as in Example 16): 0.0041 nM; GIP Receptor relative activity [1, 5]: 187.80%; EC50 ([2]; GLP-1 Receptor EC50, cAMP luciferase reporter assay as in Example 16): 0.0034 nM; GLP-1 Receptor relative activity [2, 5]: 70.59%; EC50 ([3]; Glucagon Receptor EC50, cAMP luciferase reporter assay as in Example 16): 7.07 nM; Glucagon Receptor relative activity [3, 5]: 0.27%

From patent publication US9062124B2, “GIP-based mixed agonists for treatment of metabolic disorders and obesity” (priority 2008, dated 2015)
